From paper PMC3914206

Key:
Format in all cases: binding
Design in all cases: KINOMEscan: ABL1(F317L)-phosphorylated / KINOMEscan: ABL1(H396P)-nonphosphorylated / KINOMEscan: ABL1(H396P)-phosphorylated / KINOMEscan: ABL1(M351T)-phosphorylated / KINOMEscan: ABL1(T315I)-phosphorylated / KINOMEscan: ABL1-nonphosphorylated / KINOMEscan: ABL1-phosphorylated / KINOMEscan: ACVR2A / KINOMEscan: ACVR2B / KINOMEscan: ADCK3 / KINOMEscan: ADCK4 / KINOMEscan: AKT1 / KINOMEscan: AKT3 / KINOMEscan: ALK / KINOMEscan: ARK5 / KINOMEscan: AURKA / KINOMEscan: AURKC / KINOMEscan: BIKE / KINOMEscan: BMPR1A / KINOMEscan: BMPR1B / KINOMEscan: BMX / KINOMEscan: BRK / KINOMEscan: BRSK1 / KINOMEscan: BRSK2 / KINOMEscan: CAMK1 / KINOMEscan: CAMK1D / KINOMEscan: CAMK1G / KINOMEscan: CAMK2A / KINOMEscan: CAMK2B / KINOMEscan: AAK1 / KINOMEscan: CAMK2D / KINOMEscan: CAMK2G / KINOMEscan: ABL1(F317I)-nonphosphorylated / KINOMEscan: ABL1(F317I)-phosphorylated / KINOMEscan: ABL1(F317L)-nonphosphorylated: unit: % Ctrl
Conditions in all cases: Compound Concentration 10 µM
[1] = molecular target: T1, panel of 442 kinases (Homo sapiens, UniProt Q02779)
T1 construct: purchased KINOMEscan
Excerpt: (§1) We assessed the selectivity of members of this scaffold using the KINOMEscan methodology across a near comprehensive panel of 442 kinases [[18,27]].

[2] = molecular target: T2, panel of 442 kinases (Homo sapiens, UniProt P49137)
T2 construct: purchased KINOMEscan
Excerpt: as §1

[3] = molecular target: T3, panel of 442 kinases (Homo sapiens, UniProt P00519, F317L)
T3 construct: purchased KINOMEscan
Excerpt: as §1

T2 sequence (P49137 whole entry): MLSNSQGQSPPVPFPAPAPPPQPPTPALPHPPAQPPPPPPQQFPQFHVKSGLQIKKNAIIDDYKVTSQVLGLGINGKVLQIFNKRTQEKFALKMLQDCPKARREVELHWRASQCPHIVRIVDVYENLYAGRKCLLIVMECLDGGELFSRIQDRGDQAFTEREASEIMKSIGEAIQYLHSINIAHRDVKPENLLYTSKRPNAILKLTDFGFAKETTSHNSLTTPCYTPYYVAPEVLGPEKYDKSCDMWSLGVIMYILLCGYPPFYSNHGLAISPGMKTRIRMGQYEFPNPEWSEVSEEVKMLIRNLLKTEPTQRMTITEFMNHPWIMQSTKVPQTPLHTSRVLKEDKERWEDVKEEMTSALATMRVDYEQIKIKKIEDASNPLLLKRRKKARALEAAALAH
T3 sequence (P00519 whole entry F317L): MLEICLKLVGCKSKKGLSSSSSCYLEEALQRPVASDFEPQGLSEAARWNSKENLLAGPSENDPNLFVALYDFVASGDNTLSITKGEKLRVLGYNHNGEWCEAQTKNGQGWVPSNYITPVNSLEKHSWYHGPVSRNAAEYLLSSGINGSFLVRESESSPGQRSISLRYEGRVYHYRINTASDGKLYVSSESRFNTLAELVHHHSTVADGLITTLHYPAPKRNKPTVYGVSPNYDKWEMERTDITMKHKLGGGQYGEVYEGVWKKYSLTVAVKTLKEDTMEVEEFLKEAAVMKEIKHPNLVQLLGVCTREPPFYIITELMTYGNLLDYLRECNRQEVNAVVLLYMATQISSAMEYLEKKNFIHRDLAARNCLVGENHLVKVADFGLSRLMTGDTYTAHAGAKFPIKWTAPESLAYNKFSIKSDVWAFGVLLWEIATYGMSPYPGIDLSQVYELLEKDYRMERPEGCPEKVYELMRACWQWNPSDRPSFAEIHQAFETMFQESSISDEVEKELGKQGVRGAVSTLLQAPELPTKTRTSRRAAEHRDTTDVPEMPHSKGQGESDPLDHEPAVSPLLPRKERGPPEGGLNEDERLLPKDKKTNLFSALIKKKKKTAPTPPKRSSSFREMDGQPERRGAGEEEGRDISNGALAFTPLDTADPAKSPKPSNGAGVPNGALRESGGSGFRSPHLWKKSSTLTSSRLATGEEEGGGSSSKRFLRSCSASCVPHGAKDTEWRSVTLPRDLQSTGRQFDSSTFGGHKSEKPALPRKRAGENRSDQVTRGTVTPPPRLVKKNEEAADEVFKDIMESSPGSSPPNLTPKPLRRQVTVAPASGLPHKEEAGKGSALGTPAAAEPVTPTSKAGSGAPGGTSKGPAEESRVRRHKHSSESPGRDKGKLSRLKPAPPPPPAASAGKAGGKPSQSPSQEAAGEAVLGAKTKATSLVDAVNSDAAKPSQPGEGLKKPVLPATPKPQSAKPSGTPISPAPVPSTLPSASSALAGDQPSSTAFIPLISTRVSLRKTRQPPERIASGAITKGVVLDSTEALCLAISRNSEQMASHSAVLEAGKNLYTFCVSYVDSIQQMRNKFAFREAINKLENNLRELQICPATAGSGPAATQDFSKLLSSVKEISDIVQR
T1 sequence (Q02779 whole entry): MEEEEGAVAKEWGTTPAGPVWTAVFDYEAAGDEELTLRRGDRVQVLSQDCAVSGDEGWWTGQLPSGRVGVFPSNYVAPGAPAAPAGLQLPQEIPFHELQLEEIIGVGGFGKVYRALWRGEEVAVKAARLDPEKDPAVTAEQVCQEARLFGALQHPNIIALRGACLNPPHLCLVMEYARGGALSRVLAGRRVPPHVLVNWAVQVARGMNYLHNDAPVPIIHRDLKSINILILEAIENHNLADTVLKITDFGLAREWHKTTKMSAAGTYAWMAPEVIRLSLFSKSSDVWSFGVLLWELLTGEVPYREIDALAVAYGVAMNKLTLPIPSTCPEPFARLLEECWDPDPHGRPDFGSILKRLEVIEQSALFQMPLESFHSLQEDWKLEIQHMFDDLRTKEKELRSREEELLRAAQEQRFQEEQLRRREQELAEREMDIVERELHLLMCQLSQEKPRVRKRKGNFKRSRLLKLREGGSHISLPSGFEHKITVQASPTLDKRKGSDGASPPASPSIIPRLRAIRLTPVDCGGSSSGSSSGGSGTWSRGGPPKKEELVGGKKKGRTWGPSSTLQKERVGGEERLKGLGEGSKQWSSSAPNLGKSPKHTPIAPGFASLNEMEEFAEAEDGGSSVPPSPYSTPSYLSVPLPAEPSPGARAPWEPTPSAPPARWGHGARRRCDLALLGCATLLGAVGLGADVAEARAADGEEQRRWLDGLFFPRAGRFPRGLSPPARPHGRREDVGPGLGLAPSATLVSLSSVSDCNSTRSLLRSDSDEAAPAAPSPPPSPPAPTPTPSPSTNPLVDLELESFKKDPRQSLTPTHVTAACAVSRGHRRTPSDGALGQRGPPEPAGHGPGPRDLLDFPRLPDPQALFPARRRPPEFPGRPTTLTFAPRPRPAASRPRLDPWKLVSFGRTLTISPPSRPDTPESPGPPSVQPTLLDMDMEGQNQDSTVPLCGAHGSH

Row | SMILES | KINOMEscan: MLK2 [1] | KINOMEscan: MAPKAPK2 [2] | KINOMEscan: ABL1(F317L)-nonphosphorylated [3] | KINOMEscan: ABL1(F317L)-phosphorylated [3]
1 | CCOc1cc(C(=O)N2CCC(N3CCN(C)CC3)CC2)ccc1Nc1ncc2c(n1)N(C1CCCC1)c1ccccc1C(=O)N2C [Compound 26] | 100 | 100 | 71 | 34
2 | COc1cc(C(=O)N2CCC(N3CCN(C)CC3)CC2)ccc1Nc1ncc2c(n1)N(C1CCCC1)c1ccccc1C(=O)N2C [Compound 25, 11-cyclopentyl-2-((2-methoxy-4-(4-(4-methylpiperazin-1-yl)piperidine-1-carbonyl)phenyl)amino)-5-methyl-5H-benzo[e]pyrimido[5,4-b][1,4]diazepin-6(11H)-one] | 96 | 100 | 15 | 9.1
3 | COc1cc(C(=O)N2CCC(N3CCN(C)CC3)CC2)ccc1Nc1ncc2c(n1)N1CCc3cccc(c31)C(=O)N2C [Compound 24] | 98 |  | 23 | 7.8
4 | COc1cc(C(=O)N2CCC(N3CCN(C)CC3)CC2)ccc1Nc1ncc2c(n1)N(C)c1ccccc1C(=O)N2C [15 (LRRK2-IN-1)] | 100 | 100 | 14 | 0.85
